Key:
[1] = system: break light A (calicheamicin recognition sequence 5′-TCCT-3′); assay: Molecular break light assay, break light A; type: biochemical; conditions: for Maximum fluorescence obtained upon cleavage of break light A: excess DTT
From the text: (§1) The invention further provides for a method of assaying the calicheamicin-induced DNA cleavage and its CalC-mediated inhibition using the molecular break light assay. Two molecular break lights (MLBs) for the experiments are described in example 7. Break light A is comprised of a 10-base pair stem which contained the known calicheamicin recognition sequence 5′-TCCT-3′, while break light B carries the BamHI endonuclease recognition sequence 5′-GGATCC-3′. The 5′-fluorophore of both probes was fluorescein (FAM, absorbancemax=485 nm, emissionmax=517 nm) while the corresponding 3′-quencher was 4-(4′-dimethylaminophenylazo)benzoic acid (DABCYL). Generally, MLBs operate by a separation of the fluorophore-quencher pair resulting a corresponding fluorescent signal.
(§2) The invention further provides for a method of assaying the calicheamicin-induced DNA cleavage and its CalC mediated inhibition using the molecular break light assay. Break light A was comprised of a 10-base pair stem which contained the known calicheamicin recognition sequence 5′-TCCT-3′, while break light B carried the BamHI endonuclease recognition sequence 5′-GGATCC-3′. […] The loop of both probes consisted of a T4 loop to ensure non-hybridizing interactions. The 5′-fluorophore of both probes was fluorescein (FAM, absorbancemax=485 nm, emissionmax=517 nm) while the corresponding 3′-quencher was 4-(4′-dimethylaminophenylazo)benzoic acid (DABCYL). Previous studies have shown DABCYL to serve as a universal quencher in molecular beacons and there is significant spectral overlap (1.02×10^−15 M^−1 cm^3) between the emission spectrum of FAM and the absorption spectrum of DABCYL.
Enzymalic Cleavage as Proof of Principle. […] Specifically, only break light B should cleave in the presence of the restriction endonuclease BamHI while both A and B should be digested by the non-specific nuclease DNaseI. […] In comparison, control samples containing break lights alone or break lights in the presence of BSA gave no change in fluorescence over >2 hr at 37° C. Given the lack of fluorescence in the absence of enzyme, the designed break lights show no appreciable melting at the designated assay temperature.
Enediyne-Catalyzed Cleavage. Previous assays for enediyne cleavage of DNA relied upon discontinuous assays using radioactive DNA probes, electrophoresis and subsequent phosphoimager analysis. In contrast, by using break lights one can directly follow the extent of DNA cleavage by a specific enediyne in real time with high sensitivity. […] Under the conditions described, this assay allows the detection of 1 in the pM range. This sensitivity compares to that of the biochemical induction assay (BIA), the method of choice in detecting DNA-damaging agents. […] This supports the view that the specificity of 1 is more dependent upon context and perhaps less so on DNA sequence. It should also be noted that 1 leads to predominately double-stranded cleavage while 2 provides single-stranded nicks and the current molecular break light assay can not distinguish these two phenomena.
CalC inhibits calicheamicin mediated DNA cleavage. […] 3.6 pM break light A is coincubated with 3.5 nM calicheamicin with increasing amounts of CalC (0.0 nm, 1.3 nm, 2.6 nm, 3.9 nm, 5.2 nm). Complete inhibition of calicheamicin is achieved with roughly 2-fold excess of CalC. CalC has no effect on esperamicin-induced cleavage of DNA (data not shown).

yeast = assay: Calicheamicin resistance on transgenic expression of calC in yeast; type: cell-based
From the text: (§3) DNA containing calC was cloned into an inducible vector, using known methods, resulting in overexpression of calC. The polypeptide product (CalC) was then isolated and purified to homogeneity. […] Another aspect of the invention is an expression vector containing calC or a fragment of calC coding for a bioactive molecule. There is also provided a transformed host cell, preferably bacteria, more preferably E. coli, containing calC or a fragment of calC coding for a bioactive molecule. Such transgenic expression of calC results in an 10^5-fold increase in calicheamicin resistance in E. coli, a 100-fold increase in resistance in S. lividans, and a 50-fold increase in resistance in yeast.

[2] = system: break light B (BamHI recognition sequence 5′-GGATCC-3′); assay: Molecular break light assay, break light B; type: biochemical
From the text: as §1
as §2, with “Previous studies have shown DABCYL to serve as a universal quencher in molecular beacons and there is significant spectral overlap (1.02×10^−15 M^−1 cm^3) between the emission spectrum of FAM and the absorption spectrum of DABCYL.” left out
Enzymalic Cleavage as Proof of Principle. […] In comparison, control samples containing break lights alone or break lights in the presence of BSA gave no change in fluorescence over >2 hr at 37° C. Given the lack of fluorescence in the absence of enzyme, the designed break lights show no appreciable melting at the designated assay temperature.
Consistent with this finding, PAGE analysis of the reaction products confirmed the presence of a […] after excess treatment with BamHI which is completely degraded upon DNaseI digestion. As a result, the fluorescence maxium observed with excess BamHI was designated 100% cleavage for the BamHI kinetic studies described below. […]

CalC = assay: Interaction of calicheamicin with CalC measured by CalC tryptophan fluorescence; type: binding, Micromonospora echinospora
From the text: CalC has 5 tryptophan and no cysteine residues and is unaffected by the reductive activator dithiothreitol (DTT). As the concentration of calicheamicin (3) increases in the absence of DTT there is little change in the CalC Trp fluorescence intensity.

HT1080 (human) cell line = assay: Calicheamicin resistance on transgenic expression of calC in HT1080 cell line; type: cell-based
From the text: The present invention provides for the transformation of human cells with the calC gene. The transgenic expression of calC in the HT1080 (human) cell line increased its resistance to calicheamicin 10-fold. This technique allows bone marrow cells, for example, to be removed from a patient being treated with calicheamicin, and for these cells to be transformed with calC, and for the transformed cells to be returned to the patient. This allows the patient to tolerate treatment with calicheamicin or allows the patient to receive higher doses of calicheamicin as the returned human-calC-transformed cells have calicheamicin resistance. The transformation is performed by methods known in the art. The embodiment of the invention would be applicable to many diseases being treated with calicheamicin.

S. lividans = assay: Calicheamicin resistance on transgenic expression of calC in S. lividans; type: cell-based
From the text: as §3

E. coli [3] = assay: Growth of cosmid/plasmid-carrying clones on LB plates containing calicheamicin (maximum tolerated concentration); type: cell-based; conditions: for Maximum tolerated concentration of calicheamicin: LB plates
Experimental: To isolate the gene(s) responsible for calicheamicin resistance in Micromonospora, clones conferring calicheamicin resistance were selected by growth of a Micromonospora genomic bifunctional cosmid library on LB plates containing ampicillin (50 μg ml^−1) and calicheamicin (0.25 μg ml^−1). […] Restriction mapping of these clones localized the desired phenotype to a ˜2kb PstI-SacI fragment of DNA. (FIG. 2). Maximum tolerated concentrations of calicheamicin on the LB plates was ascertained. The results are as follows:
The proximal 1 kb of this fragment carried the single orf calD while the distal 1 kb presented orf calC. […] Therefore, it was hypothesized that calD was not responsible for calicheamicin resistance. To rule out calD as being responsible for calicheamicin resistance, a subclone was engineered (pJT1224) to contain an intact calD, but the truncated calC gene. This subclone was not able to confer resistance to calicheamicin. Next, a subclone containing the calC region was constructed (pJT1232). This clone conferred calicheamicin resistance, as indicated in the above chart.
To ascertain the amino acid sequence of CalC and learn its properties, calC was cloned into a pMAL-C2 vector. (pMAL-C2 by itself could not confer calicheamicin resistance. See above chart.) The resulting plasmid, pRE7, which contained calC, conferred resistance to calicheamicin. See above chart. Plasmid pRE7 was then induced with isopropyl Beta-D-thiogalactoside (“IPTG”) to overexpress CalC. Induced pRE7 conferred resistance to calicheamicin and produced a maltose-binding protein CalC fusion protein (mbp-CalC). This resulting overexpression of CalC increased calicheamicin resistance 10^2-fold in vivo. See above chart.

E. coli [4] = assay: Calicheamicin resistance on transgenic expression of calC in E. coli; type: cell-based
From the text: as §3

[5] = system: supercoiled pBlusecript plasmid DNA; assay: In vitro calicheamicin-induced DNA cleavage assay (agarose gel); type: biochemical
Experimental: To test this theory, preliminary assays were performed with supercoiled pBlusecript plasmid DNA (“pBS”) as the template, and dithiothreitol (“DTT”) as the reductive initiator. In a typical assay, purified mbp-CalC (15.0 nM) and 30.0 nM calicheamicin were preincubated for 15 min. in a total volume of 25 μL 40 mM Tris-Cl, pH 7.5, at 37° C. Then 2.5 μL 10 mM DTT stock solution was added to the assay solution, and the assay was incubated an additional 1 hour at 37° C. DNA fragmentation was assessed by electrophoresis on a 1% agarose gel stained with ethidium bromide.
Reconstitution of apo-mbp-CalC was accomplished by preincubation with 1 mM FeSO4 (Fe^+2) or FeCl3 (Fe^+3) prior to the activity assay as previously described.

esperamicin
Maximum fluorescence obtained upon cleavage of break light A ([1]; 3.2 nM break light A, 37° C.): identical to that observed with DNaseI

calicheamicin
Increase in calicheamicin resistance on transgenic expression of calC (yeast): 50 fold | Rate of cleavage of molecular break light B compared with break light A [2]: identical rate | Binding to CalC (CalC Trp fluorescence intensity) (CalC; addition of DTT to activate calicheamicin): increased binding | Change in CalC Trp fluorescence intensity (CalC; increasing calicheamicin concentration, absence of DTT): little change | Increase in resistance to calicheamicin on transgenic expression of calC (HT1080 (human) cell line): 10 fold | Maximum fluorescence obtained upon cleavage of break light A ([1]; 3.2 nM break light A, 37° C.): identical to that observed with DNaseI | Increase in calicheamicin resistance on transgenic expression of calC (S. lividans): 100 fold | Maximum tolerated concentration of calicheamicin (E. coli [3]; cosmids 3a, 4a, 10a, 13a, and 16a): 0.5 µg/mL | Maximum tolerated concentration of calicheamicin (E. coli [3]; induced pRE7 (IPTG)): 50.0 µg/mL | Maximum tolerated concentration of calicheamicin (E. coli [3]; pJT1214 and pJT1232): 5.0 µg/mL | Maximum tolerated concentration of calicheamicin (E. coli [3]; pJT1224, pAP6, Pre1, and control plasmids pUC18, pBluescript, and pMAL-C2): <0.01 µg/mL | Maximum tolerated concentration of calicheamicin (E. coli [3]; pRE7 (calC in pMAL-C2)): 20.0 µg/mL | Increase in calicheamicin resistance on overexpression of CalC (E. coli [3]; induced pRE7, in vivo): 10^2 fold | Increase in calicheamicin resistance on transgenic expression of calC (E. coli [4]): 10^5 fold | DNA cleavage ([5]; in the absence of DTT): no DNA cleavage | DNA cleavage ([5]; in the presence of DTT and calicheamicin): efficient cleavage

B1: CalC: polypeptide conferring calicheamicin resistance, 181 amino acids, SEQ ID. NO. 2 (protein)
chain: MTQEKTAPAAKSTTTKSTAAKKPKPPNYDPFVRHSVTVKADRKTAFKTFLEGFPEWWPNNFRTTKVGAPLGVDKKGGRWYEIDEQGEEHTFGLIRKVDEPDTLVIGWRLNGFGRIDPDNSSEFTVTFVADGQKKTRVDVEHTHFDRMGTKHAKRVRNGMDKGWPTILQSFQDKIDEEGAKK
modifications: Bacteria
Effect on esperamicin-induced cleavage of DNA [1]: no effect | Excess of CalC giving complete inhibition of calicheamicin-mediated DNA cleavage ([1]; 3.6 pM break light A, 3.5 nM calicheamicin): roughly 2 fold | Inhibition of calicheamicin mediated DNA cleavage ([1]; CalC in a two-fold molar excess of calicheamicin): completely abolishes

B2: BamHI: restriction endonuclease (protein, UniProt P23940 1-213, looked up)
Type II restriction enzyme …: MEVEKEFITDEAKELLSKDKLIQQAYNEVKTSICSPIWPATSKTFTINNTEKNCNGVVPIKELCYTLLEDTYNWYREKPLDILKLEKKKGGPIDVYKEFIENSELKRVGMEFETGNISSAHRSMNKLLLGLKHGEIDLAIILMPIKQLAYYLTDRVTNFEELEPYFELTEGQPFIFIGFNAEAYNSNVPLIPKGSDGMSKRSIKKWKDKVENK
Change of fluorescence over time ([2]; 3.2 nM break light B, 37° C.): increase of fluorescence | Fluorescence maximum intensity upon complete cleavage, relative to that observed with DNaseI ([2]; same concentration of molecular break light): 75% | Change of fluorescence over time ([1]; 3.2 nM break light A, 37° C.): no change

Source: patent US6733998B1, “Micromonospora echinospora genes coding for biosynthesis of calicheamicin and self-resistance thereto” (priority 1998, dated 2004)
